Legend:
[1] = tested on: reactional gliosis (reactive astrocytes); test: Reactional gliosis after electrolytic lesion of the striatum (brain), GFAP detection; format: in vivo, rat; conditions: rats aged 6 days; 2 μl liposomes with 20 μg PC and 2 μg sterol or oxysterol injected into the site of lesion
Protocol: (§1) PC and steroidal derivatives are dissolved in CHCL3/methanol [sic] (2/1 v/v), the solvent evaporated and 1 ml of KCL [sic] (0.15 M) added. The suspension is subjected to ultrasound in an ice bath (5×1 min with an interval of 30 sec, amplitude 18 μm), centrifuged 13,000 g for 20 min, the supernatant withdrawn and concentrated 5 times under nitrogen. BRAIN
Rats aged 6 days are anesthetized with an intraperitoneal injection of imalgene 500 (2 mg/10 g) and valium (0.05 ml/10 g) and then placed in a stereotaxic apparatus in order to be subjected to an electrolytic lesion at the level of the striatum. For this, a dental probe, insulated except at the point, is moved down to the level of the striatum according to the stereotaxic coordinates with respect to the lambda. At this level, a current of 2 mA is applied for 10 secs;
2 μl of a suspension of liposomes containing 20 μg of PC and 2 μg of various sterols or oxysterols are injected into the site of lesion.
(§2) GFAP, specific structural labeler of astrocytes, is detected on paraffin sections by the antibody/antiantibody system to GFAP coupled to the peroxidase.

[2] = tested on: glioblastomas in the rat cortex (C6 cells); test: Glioblastomas induced in the brain with C6 cells, liposome treatment at the tumor site; format: in vivo
Protocol: The “in vivo” model proposed by Galli et al., (J. Neurooncology, 7, 299-304, 1989) has been adopted with a few modifications in the number of C6-type cells injected and in the age of the rats. Rats (Wistar male) aged 6 days are anesthetized and placed in a stereotaxic apparatus, the skin of the cranium is opened and the skull pierced at appropriate coordinates (4.5 AP, 3.0 ML, 2.0 mm DV with respect to the lambda, set 0) using a dental drill; 200×10^3 C6 in […] of PBS are then injected over 4 minutes and then the skin sutured. 72 hours later, the rats are operated on again and treated with liposomes containing the 7β-hydroxycholesteryl 3-esters. […]
The rats are sacrificed 8 days after the treatment by […] injection of pentobarbital, perfused with formalin (4%) and the withdrawn brain is post-fixed in formalin (4%) and then in isobutanol and included in paraffin. Sections with a thickness of 10 μm are prepared using a section cutter and, after removing paraffin in toluene, the glioblastomas are detected by staining with Cresyl Violet (0.1% in 0.1 M […] and 0.1 M sodium acetate) and subjected to an image analyzer (IBAS, KONTRON, SAMBA ALCATEL). […]
Quantitative analysis of the lesions thus observed requires the acquisition of images with sequences of echoes of spin having several echoes and recovery times. […]

[3] = tested on: secondary reactional gliosis (reactive astrocytes); test: Reactional gliosis after complete section of the spinal cord at T8, GFAP detection; format: in vivo, rat; conditions: rats 250 g; 5 μl liposomes with 500 μg PC and 50 μg ester injected 0.5 mm downstream of the section
Protocol: as §1
After complete section of the spinal cord at the T8 level in rats weighing 250 g (Sprague, Dawley, EFFA, Credo), 5 μl of a suspension of liposomes containing 500 μg of PC and 50 μg of esters of 7β-OH-CH (C18:0 or C18:1) are injected at 0.5 mm downstream of the section.
as §2

[4] = tested on: subcutaneous glioblastomas (C6 cells); test: Subcutaneous tumors induced by inoculating with C6 cells, intratumoral liposome treatment; format: in vivo, rat; conditions: 50 μl liposomes with 1 mg PC and 100 μg steroid injected into the tumors; photographed 48 hours afterwards
Protocol: The C6 cells (passage 55-57) are injected subcutaneously at the shoulders at a charge of 10^6 cells/200 μl of […] in rats (26 g) aged 3 weeks according to Ledig et al., (Revue de l'Alcoolisme, 1986, 31, 1-11); when the tumors develop (2 weeks after inoculating with the C6 cells), 50 μl of a suspension of liposomes containing 1 mg of PC and 100 μg of cholesteryl oleate or 7β-OH-cholesteryl oleate are injected into the tumors. The animals are photographed 48 hours afterwards.

[5] = tested on: ascitic tumors, Krebs-II transplantable carcinoma; conditions: injected intraperitoneally into mice carrying ascitic tumors; cited from earlier work
transformed astrocytes = conditions: cited from earlier work
[6] = tested on: rat fibroblasts originating from the heart; conditions: cited from earlier work
[7] = tested on: HTC cells (rat liver tumoral cells); conditions: cited from earlier work
[8] = tested on: cultured heart cells from newborn rats; conditions: cited from earlier work
[9] = tested on: hepatocytes from newborn rats; conditions: cited from earlier work
[10] = tested on: lymphoma (mouse RDM4 and YAC-1); conditions: mouse RDM4 and YAC-1 lymphoma; cited from earlier work
[11] = tested on: rat liver epithelial cells; conditions: cited from earlier work
[12] = tested on: tumors induced by 7,12-di-methylbenz(α)anthracene; conditions: female Sprague-Dawley rats; cited from earlier work

In the case of CCCCCCCC/C=C\CCCCCCCC(=O)O[C@H]1CC[C@@]2(C)C(=C[C@H](O)[C@H]3[C@@H]4CC[C@H]([C@H](C)CCCC(C)C)[C@@]4(C)CC[C@@H]32)C1 [7β-OH-CH (C18:1), 7β-hydroxycholesteryl 3-oleate], the “reactional gliosis in the CNS” value [1] is reported as “high attenuation”, the “size of the tumors (Cresyl Violet staining)” value ([2]; 40 μg in PC/GM1 liposomes injected 72 hours after C6 inoculation, sacrifice 8 days after treatment) is reported as “significant reduction” and the “monitoring of the tumor over time by NMR imagery” value ([2]; same glioblastoma induced in the cortex of a rat, during treatment) is reported as “regression”. The “secondary reactional gliosis at the spinal cord lesion site” value [3] was “reduces” and the “effect on the subcutaneous tumor” value [4] was “significant regression”.
In the case of CC(C)CCC[C@@H](C)[C@H]1CC[C@H]2[C@@H]3[C@@H](OC(=O)CCC(=O)O)C=C4C[C@@H](OC(=O)CCC(=O)O)CC[C@]4(C)[C@H]3CC[C@]12C [7β-hydroxycholesterol 3,7-bis(hemisuccinate)], the antitumoral activity [5] is listed as “antitumoral activity”.
For CC(C)CCC[C@@H](C)[C@H]1CC[C@H]2[C@@H]3[C@@H](O)C=C4C[C@@H](O)CC[C@]4(C)[C@H]3CC[C@]12C [7β-hydroxycholesterol], the “metabolism to esters of fatty acids” value (transformed astrocytes) is given as “metabolized”, the “cytotoxic activity against cultured cells” value [6] is given as “cytotoxic activity” and the “cytotoxic activity against cultured cells” value [7] is given as “cytotoxic activity”. The “effect on cells with weaker potential for division” value [8] was “not detrimentally affected”, the “effect on cells with weaker potential for division” value [9] was “not detrimentally affected” and the “cytotoxic activity against cultured cells” value [10] was “cytotoxic activity”. For the same compound, the “cytotoxic activity against cultured cells” value [11] was “cytotoxic activity”.
For CC(C)CC[C@@H](O)[C@@H](C)[C@H]1CC[C@H]2[C@@H]3[C@@H](O)C=C4C[C@@H](O)CC[C@]4(C)[C@H]3CC[C@]12C [(22 R)-cholest-5-ene-3β,7β22-triol], the development of tumors [12] is listed as “effectively reduced”.
For CCCCCCCCCCCCCCCC(=O)O[C@H]1CC[C@@]2(C)C(=CC[C@H]3[C@@H]4CC[C@H]([C@H](C)CCCC(C)C)[C@@]4(C)CC[C@@H]32)C1 [CH (C16:0), cholesteryl palmitate], the “reactional gliosis in the CNS” value [1] was “ineffective”.
With CCCCCCCC/C=C\CCCCCCCC(=O)O[C@H]1CC[C@@]2(C)C(=CC[C@H]3[C@@H]4CC[C@H]([C@H](C)CCCC(C)C)[C@@]4(C)CC[C@@H]32)C1 [CH (C18:1), cholesteryl oleate] the “effect on the subcutaneous tumor” value [4] was “practically no effect”.
With CC(C)CCC[C@@H](C)[C@H]1CC[C@H]2[C@@H]3CC=C4C[C@@H](O)CC[C@]4(C)[C@H]3CC[C@]12C [CH, cholesterol] the “reactional gliosis in the CNS” value [1] was “ineffective”.

Source: US6423702B1, “PROCESS FOR THE HYDROXYLATION OF AN ACYCLIC OR CYCLIC METHYLENE RADICAL IN THE ALLYLIC POSITION, PHARMACEUTICAL COMPOSITION CONTAINING HYDROXYCHOLESTEROL DERIVATIVES AND UTILIZATION OF SUCH COMPOSITIONS FOR THE PREPARATION OF DRUGS” (priority 1991, dated 2002)
